# Laboratory results published in patent US20100056596A1, “RESISTANCE-REPELLENT RETROVIRAL PROTEASE INHIBITORS” (Sequoia Pharmaceuticals, priority 2004, published 2010).
# Read-outs that look alike come from different tables or passages of the source.
# Experiments:
# wild type HIV-1 protease = molecular target: T1, wild type HIV-1 protease (Human immunodeficiency virus type 1 group M subtype B, UniProt P04585); assay: Ki against wild type (WT) HIV-1 protease; format: biochemical
# T1 construct: over 45 of the 99 amino acids of the HIV protease monomer
# HIV-1 protease Mutant 8 = HIV-1 protease Mutant 8 (Human immunodeficiency virus type 1, UniProt P04585); assay: Ki against HIV-1 protease Mutant 8; format: biochemical
# HIV-1 protease Mutant 9 = HIV-1 protease Mutant 9 (Human immunodeficiency virus type 1, UniProt P04585); assay: Ki against HIV-1 protease Mutant 9; format: biochemical
# HIV-1 isolates, WT = assay: In vitro drug sensitivity of HIV-1 laboratory isolates, WT; format: cell-based
# Experimental: (§1) In Vitro Drug Sensitivity of HIV-1 Laboratory Isolates to PIs
# (§2) The sensitivities of HIV-1 isolates against compounds of the invention were determined as previously described with minor modifications (Shiraska et al., Proc. Natl. Acad. Sci. USA, 92, 2398-2402 (1995)).
# HIV-1 isolates, Mutant 8 = assay: In vitro drug sensitivity of HIV-1 laboratory isolates, Mutant 8; format: cell-based
# Experimental: as §1, §2
# HIV-1 isolates, Mutant 9 = assay: In vitro drug sensitivity of HIV-1 laboratory isolates, Mutant 9; format: cell-based
# Experimental: as §1, §2
# [1] = Human immunodeficiency virus 1, read-out: IC50 Mutant 8
# [2] = Human immunodeficiency virus 1, read-out: IC50 Mutant 9
# [3] = Human immunodeficiency virus 1, HIV-1 isolate WT
# [4] = Mutant 8, read-out: IC50 Mutant 8
# [5] = Mutant 9, read-out: IC50 Mutant 9
Structure (SMILES),Ki (wild type HIV-1 protease; WT) [nM],Ki (HIV-1 protease Mutant 8; Mutant 8) [nM],Ki (HIV-1 protease Mutant 9; Mutant 9) [nM],"IC50 (HIV-1 isolates, WT; Human immunodeficiency virus 1) [nM]","IC50 (HIV-1 isolates, Mutant 8; [1]) [nM]","IC50 (HIV-1 isolates, Mutant 9; [2]) [nM]",Ki (wild type HIV-1 protease; wild type HIV-1 protease) [nM],Ki (HIV-1 protease Mutant 8; HIV-1 protease Mutant 8) [nM],Ki (HIV-1 protease Mutant 9; HIV-1 protease Mutant 9) [nM],"IC50 (HIV-1 isolates, WT; [3]) [nM]","IC50 (HIV-1 isolates, WT; WT) [nM]","IC50 (HIV-1 isolates, Mutant 8; [4]) [nM]","IC50 (HIV-1 isolates, Mutant 9; [5]) [nM]"
CC(C)CN(CC(O)C(Cc1ccccc1)NC(=O)OC1COC2OCCC12)S(=O)(=O)c1ccc2occ(CNC(=O)C[S+]([O-])Cc3ccccc3)c2c1 (centres unmarked) [Compound 120],< 0.1,< 0.3,0.22,20,31,150,–,–,–,–,–,–,–
"CC(C)CN(CC(O)C(Cc1ccccc1)NC(=O)OC1COC2OCCC12)S(=O)(=O)c1ccc2occ(CNC(=O)c3ccccc3)c2c1 (centres unmarked) [Compound 114, (3-{[3-(Benzoylamino-methyl)-benzofuran-5-sulfonyl]-isobutyl-amino}-1-benzyl-2-hydroxy-propyl)-carbamic acid hexahydro-furo[2,3-b]furan-3-yl ester]",0.1,< 0.3,< 0.1,4,23,30,–,–,–,–,–,–,–
Cc1ccc(S(=O)(=O)N(C)Cc2noc3ccc(S(=O)(=O)N(CC(C)C)CC(O)C(Cc4ccccc4)NC(=O)OC4COC5OCCC45)cc23)cc1 (centres unmarked) [Compound 211],–,–,–,–,51,300,< 0.1,< 0.3,1.7,2.1,–,–,–
CC(C)CN(C[C@@H](O)[C@H](Cc1ccccc1)NC(=O)OC1COC2OCCC12)S(=O)(=O)c1ccc2occ(CNCCc3ccccn3)c2c1 (some centres unmarked) [Compound 117],< 0.1,< 0.3,< 0.1,–,–,–,–,–,–,–,7,27,49
CC(C)CN(C[C@@H](O)[C@H](Cc1ccccc1)NC(=O)OC1COC2OCCC12)S(=O)(=O)c1ccc2oc(CBr)cc2c1 (some centres unmarked) [Compound 104],< 0.1,< 0.3,0.41,–,–,–,–,–,–,–,8,41,230
COCCNCc1noc2ccc(S(=O)(=O)N(CC(C)C)CC(O)C(Cc3ccccc3)NC(=O)OC3COC4OCCC34)cc12 (centres unmarked) [Compound 219],–,–,–,–,9,40,< 0.1,< 0.3,0.37,4,–,–,–
CC(C)CN(CC(O)C(Cc1ccccc1)NC(=O)OC1COC2OCCC12)S(=O)(=O)c1ccc2onc(CNC(=O)c3ccco3)c2c1 (centres unmarked) [Compound 240],–,–,–,–,11,20,< 0.1,< 0.3,0.26,6.5,–,–,–
CC(C)CN(CC(O)C(Cc1ccccc1)NC(=O)OC1COC2OCCC12)S(=O)(=O)c1ccc2onc(CNCCNC(=O)OC(C)(C)C)c2c1 (centres unmarked) [Compound 236],–,–,–,–,18,160,< 0.1,< 0.3,0.34,6,–,–,–
CC(C)CN(CC(O)C(Cc1ccccc1)NC(=O)OC1COC2OCCC12)S(=O)(=O)c1ccc2[nH]nc(NCC(C)(C)C)c2c1 (centres unmarked) [Compound 309],0.13,< 0.3,3.5,4,25,250,–,–,–,–,–,–,–
CCC(CC)Nc1n[nH]c2ccc(S(=O)(=O)N(CC(C)C)CC(O)C(Cc3ccccc3)NC(=O)OC3COC4OCCC34)cc12 (centres unmarked) [Compound 307],< 0.1,< 0.3,0.55,7.5,24,110,–,–,–,–,–,–,–
CC(C)CN(CC(O)C(Cc1ccccc1)NC(=O)OC1COC2OCCC12)S(=O)(=O)c1ccc2onc(CNCC3CCCCC3)c2c1 (centres unmarked) [Compound 238],–,–,–,–,35,55,< 0.1,< 0.3,< 0.1,7.5,–,–,–
CCCNc1n[nH]c2ccc(S(=O)(=O)N(CC(C)C)CC(O)C(Cc3ccccc3)NC(=O)OC3COC4OCCC34)cc12 (centres unmarked) [Compound 305],< 0.1,< 0.3,0.66,16,30,180,–,–,–,–,–,–,–
CC(C)CN(C[C@@H](O)[C@H](Cc1ccccc1)NC(=O)OC1COC2OCCC12)S(=O)(=O)c1ccc2occ(CNC(=O)CNC(=O)OCc3ccccc3)c2c1 (some centres unmarked) [Compound 116],< 0.1,< 0.3,0.41,–,–,–,–,–,–,–,15,50,58
CCSCCNCc1noc2ccc(S(=O)(=O)N(CC(C)C)CC(O)C(Cc3ccccc3)NC(=O)OC3COC4OCCC34)cc12 (centres unmarked) [Compound 226],–,–,–,–,16,38,< 0.1,< 0.3,< 0.1,5.5,–,–,–
CCC(=O)NCc1coc2ccc(S(=O)(=O)N(CC(C)C)C[C@@H](O)[C@H](Cc3ccccc3)NC(=O)OC3COC4OCCC34)cc12 (some centres unmarked) [Compound 113],< 0.1,< 0.3,< 0.1,–,–,–,–,–,–,–,7,20,50
CC(=O)OCc1coc2ccc(S(=O)(=O)N(CC(C)C)CC(O)C(Cc3ccccc3)NC(=O)OC3COC4OCCC34)cc12 (centres unmarked) [Compound 122],< 0.1,< 0.3,0.27,5.9,11,110,–,–,–,–,–,–,–

Structure (SMILES),Ki (wild type HIV-1 protease; WT) [nM],Ki (HIV-1 protease Mutant 8; Mutant 8) [nM],Ki (HIV-1 protease Mutant 9; Mutant 9) [nM],"IC50 (HIV-1 isolates, WT; Human immunodeficiency virus 1) [nM]","IC50 (HIV-1 isolates, Mutant 8; [1]) [nM]","IC50 (HIV-1 isolates, Mutant 9; [2]) [nM]",Ki (wild type HIV-1 protease; wild type HIV-1 protease) [nM],Ki (HIV-1 protease Mutant 8; HIV-1 protease Mutant 8) [nM],Ki (HIV-1 protease Mutant 9; HIV-1 protease Mutant 9) [nM],"IC50 (HIV-1 isolates, WT; [3]) [nM]","IC50 (HIV-1 isolates, WT; WT) [nM]","IC50 (HIV-1 isolates, Mutant 8; [4]) [nM]","IC50 (HIV-1 isolates, Mutant 9; [5]) [nM]"
CC(C)CN(CC(O)C(Cc1ccccc1)NC(=O)OC1COC2OCCC12)S(=O)(=O)c1ccc2onc(CSCC(F)(F)F)c2c1 (centres unmarked) [Compound 233],–,–,–,–,36,> 400,< 0.1,< 0.3,3.4,4,–,–,–
CC(C)CN(CC(O)C(Cc1ccccc1)NC(=O)OC1COC2OCCC12)S(=O)(=O)c1ccc2onc(CN3CCOCC3)c2c1 (centres unmarked) [Compound 239],–,–,–,–,25,> 400,< 0.1,< 0.3,3.7,3,–,–,–
CC(C)CN(CC(O)C(Cc1ccccc1)NC(=O)OC1COC2OCCC12)S(=O)(=O)c1ccc2onc(CNCCOc3ccccc3)c2c1 (centres unmarked) [Compound 230],–,–,–,–,20,57,< 0.1,< 0.3,0.14,4.8,–,–,–
CC(C)CN(CC(O)C(Cc1ccccc1)NC(=O)OC1COC2OCCC12)S(=O)(=O)c1ccc2onc(CNC3CCCC3)c2c1 (centres unmarked) [Compound 235],–,–,–,–,15,120,< 0.1,< 0.3,0.43,4.2,–,–,–
CC(C)CN(CC(O)C(Cc1ccccc1)NC(=O)OC1COC2OCCC12)S(=O)(=O)c1ccc2onc(CNCc3ccc4occc4c3)c2c1 (centres unmarked) [Compound 248],–,–,–,–,24,54,< 0.1,< 0.3,0.33,7.9,–,–,–
CCCC[S+]([O-])Cc1coc2ccc(S(=O)(=O)N(CC(C)C)C[C@@H](O)[C@H](Cc3ccccc3)NC(=O)OC3COC4OCCC34)cc12 (some centres unmarked) [Compound 111],< 0.1,< 0.3,0.16,8,24,49,–,–,–,–,–,–,–
CC(C)CN(CC(O)C(Cc1ccccc1)NC(=O)OC1COC2OCCC12)S(=O)(=O)c1ccc2onc(CNCc3ccccn3)c2c1 (centres unmarked) [Compound 241],–,–,–,–,17,27,0.1,< 0.3,0.16,8,–,–,–
CC(C)CN(CC(O)C(Cc1ccccc1)NC(=O)OC1COC2OCCC12)S(=O)(=O)c1ccc2onc(CNCCc3ccccn3)c2c1 (centres unmarked) [Compound 224],–,–,–,–,30,100,< 0.1,< 0.3,0.22,15,–,–,–
CC(C)CN(C[C@@H](O)[C@H](Cc1ccccc1)NC(=O)OC1CO[C@H]2OCC[C@@H]12)S(=O)(=O)c1ccc2c(c1)C(C)CO2 (some centres unmarked),< 0.1,–,7.5,1.5,56,900,–,–,–,–,–,–,–
CC(=O)N(Cc1noc2ccc(S(=O)(=O)N(CC(C)C)CC(O)C(Cc3ccccc3)NC(=O)OC3COC4OCCC34)cc12)CC(F)(F)F (centres unmarked) [Compound 247],–,–,–,–,29,> 400,< 0.1,< 0.3,1.1,5.4,–,–,–
CCCCNCc1noc2ccc(S(=O)(=O)N(CC(C)C)CC(O)C(Cc3ccccc3)NC(=O)OC3COC4OCCC34)cc12 (centres unmarked) [Compound 231],–,–,–,–,23,60,< 0.1,< 0.3,0.29,4.3,–,–,–
CCS(=O)(=O)NCc1noc2ccc(S(=O)(=O)N(CC(C)C)CC(O)C(Cc3ccccc3)NC(=O)OC3COC4OCCC34)cc12 (centres unmarked) [Compound 223],–,–,–,–,11,60,< 0.1,< 0.3,0.26,9,–,–,–
CC(C)CN(CC(O)C(Cc1ccccc1)NC(=O)OC1COC2OCCC12)S(=O)(=O)c1ccc2onc(CNCCCN3CCCC3=O)c2c1 (centres unmarked) [Compound 237],–,–,–,–,41,85,< 0.1,< 0.3,0.27,31,–,–,–
CC(=O)NCc1coc2ccc(S(=O)(=O)N(CC(C)C)C[C@@H](O)[C@H](Cc3ccccc3)NC(=O)OC3COC4OCCC34)cc12 (some centres unmarked) [Compound 107],< 0.1,< 0.3,0.26,–,–,–,–,–,–,–,15,28,42
CC(C)CN(CC(O)C(Cc1ccccc1)NC(=O)OC1COC2OCCC12)S(=O)(=O)c1ccc2occ(CO)c2c1 (centres unmarked) [Compound 124],< 0.1,< 0.3,0.26,8.7,12,130,–,–,–,–,–,–,–
